# Experimental data published in ChEMBL document CHEMBL1201862, “PubChem BioAssay data set” (2004).
# The source made the active and inactive calls.
# Key:
# Fatty acid synthase [1] = target: T1, Fatty acid synthase (Homo sapiens, UniProt P49327); assay: FAS thioesterase domain inhibitors, dose response, biochemical, kinetic fluorescence intensity (AID 624326); assay type: functional;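 further: rate of fluorescence rise from hydrolysis of a fluorogenic O-methyl fluorescein ester substrate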
# [2] = target: Photoreceptor-specific nuclear receptor (Homo sapiens, UniProt Q9Y5X4); assay type: functional, cell-based;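 further: CHO-S cells with Gal4-NCOR and VP16-NR2E3 two-hybrid luciferase reporter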
# Sequence of Photoreceptor-specific nuclear receptor (Q9Y5X4 whole entry, the tested form may be a part): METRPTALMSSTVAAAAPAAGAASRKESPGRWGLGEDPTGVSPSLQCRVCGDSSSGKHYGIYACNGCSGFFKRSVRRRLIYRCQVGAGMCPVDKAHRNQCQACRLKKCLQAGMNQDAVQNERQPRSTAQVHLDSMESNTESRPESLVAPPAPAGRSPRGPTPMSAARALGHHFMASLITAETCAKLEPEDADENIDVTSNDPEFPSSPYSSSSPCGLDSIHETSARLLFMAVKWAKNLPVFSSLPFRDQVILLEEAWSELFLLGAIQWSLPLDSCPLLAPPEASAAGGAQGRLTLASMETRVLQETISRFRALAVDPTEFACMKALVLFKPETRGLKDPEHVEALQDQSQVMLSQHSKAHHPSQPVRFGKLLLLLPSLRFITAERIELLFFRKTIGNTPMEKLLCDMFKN
# Fatty acid synthase [3] = target: T1, Fatty acid synthase; assay: FAS thioesterase domain inhibitors, dose response, biochemical, endpoint fluorescence intensity, uHTS hits (AID 624327); assay type: functional;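 further: fluorescence from hydrolysis of an O-methyl fluorescein acyl ester substrate by the enzyme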
# [4] = cytotoxicity in HMLE control line with eGFP shRNA, dose response, counter-screen for HMLE_sh_ECad selective toxicity project, cell-based, HMLE_sh_eGFP, luminescence (AID 463074); assay type: functional, Homo sapiens;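 further: HMLE human mammary epithelial cells expressing control shRNA against eGFP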
# [5] = Luminescence Cell-Based Dose Retest to Confirm Inhibitors of Cancer Stem Cells. [Related pubchem assays (depositor defined):AID2717, AID2721]; assay type: functional; details: Homo sapiens
# [6] = CRF-BP/CRF-R2 complex antagonists, dose response, cell-based, uHTS hits, 384-well (AID 651639); assay type: functional, Homo sapiens; details: read-out: IC50_Mean
# [7] = target: T2, Corticotropin-releasing factor receptor 2/Corticotropin-releasing factor-binding protein (Homo sapiens, UniProt P24387+Q13324); assay: Dose Response confirmation of uHTS hits for small molecule antagonists of the CRF-binding protein and CRF-R2 receptor complex.; assay type: functional; details: read-out: IC50_Mean
# T2 sequence (Q13324 whole entry): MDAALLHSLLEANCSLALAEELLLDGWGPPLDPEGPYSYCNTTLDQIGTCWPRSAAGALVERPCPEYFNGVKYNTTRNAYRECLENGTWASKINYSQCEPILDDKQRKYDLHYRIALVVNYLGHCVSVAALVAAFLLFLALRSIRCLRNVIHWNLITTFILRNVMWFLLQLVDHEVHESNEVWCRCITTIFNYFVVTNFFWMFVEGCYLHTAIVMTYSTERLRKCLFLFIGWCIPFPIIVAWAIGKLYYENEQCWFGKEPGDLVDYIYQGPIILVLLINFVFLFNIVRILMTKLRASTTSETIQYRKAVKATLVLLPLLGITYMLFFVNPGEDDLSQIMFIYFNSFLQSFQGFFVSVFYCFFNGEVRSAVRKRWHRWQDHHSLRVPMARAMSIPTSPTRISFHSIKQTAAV
# T2 sequence (P24387 whole entry): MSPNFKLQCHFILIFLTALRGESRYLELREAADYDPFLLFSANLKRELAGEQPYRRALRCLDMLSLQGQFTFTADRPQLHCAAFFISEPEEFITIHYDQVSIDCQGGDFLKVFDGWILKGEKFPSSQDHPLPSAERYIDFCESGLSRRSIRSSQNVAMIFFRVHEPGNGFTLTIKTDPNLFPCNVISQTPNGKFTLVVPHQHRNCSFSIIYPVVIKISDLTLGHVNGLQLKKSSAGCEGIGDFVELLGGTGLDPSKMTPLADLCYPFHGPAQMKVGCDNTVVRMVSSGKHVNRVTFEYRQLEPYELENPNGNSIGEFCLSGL
# [8] = target: T2, Corticotropin-releasing factor receptor 2/Corticotropin-releasing factor-binding protein; assay: activators of CRF receptor 2 with binding protein – uHTS hits, confirmation (AID 602473); assay type: functional; details: read-out: EC50_Mean
# [9] = target: T3, DNA repair and recombination protein RAD54-like (Homo sapiens, UniProt Q92698); assay: inhibitors of human RAD54 branch migration, confirmation, biochemical, fluorescence, cherry-picked samples, dose series (AID 651657); assay type: functional
# T3 sequence (Q92698 whole entry): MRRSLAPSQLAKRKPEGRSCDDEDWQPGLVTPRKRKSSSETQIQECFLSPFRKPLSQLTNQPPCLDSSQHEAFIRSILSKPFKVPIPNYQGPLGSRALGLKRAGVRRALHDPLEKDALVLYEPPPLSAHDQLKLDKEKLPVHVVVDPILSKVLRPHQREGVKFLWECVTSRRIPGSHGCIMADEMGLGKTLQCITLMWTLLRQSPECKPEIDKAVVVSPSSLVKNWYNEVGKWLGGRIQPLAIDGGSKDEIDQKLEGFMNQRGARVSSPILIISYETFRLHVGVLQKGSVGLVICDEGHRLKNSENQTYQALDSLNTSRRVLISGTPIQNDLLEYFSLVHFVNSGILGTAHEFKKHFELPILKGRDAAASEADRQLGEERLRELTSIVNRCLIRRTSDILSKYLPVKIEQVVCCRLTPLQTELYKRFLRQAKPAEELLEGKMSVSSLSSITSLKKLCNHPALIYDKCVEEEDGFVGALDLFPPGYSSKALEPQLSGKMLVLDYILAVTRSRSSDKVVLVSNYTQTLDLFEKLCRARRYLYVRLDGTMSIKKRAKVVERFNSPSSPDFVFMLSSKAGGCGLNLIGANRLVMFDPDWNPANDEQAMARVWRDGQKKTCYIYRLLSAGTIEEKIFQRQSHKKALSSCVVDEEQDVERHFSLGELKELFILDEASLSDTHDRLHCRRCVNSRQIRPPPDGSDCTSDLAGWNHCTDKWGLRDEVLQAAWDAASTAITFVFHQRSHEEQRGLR
# [10] = target: T4, Tyrosine-protein phosphatase non-receptor type 11 (Homo sapiens, UniProt Q06124); assay: SHP2 phosphatase inhibition, dose response, selectivity assay for STEP inhibitor project, biochemical (AID 602367); assay type: functional; details: read-out: IC50_Mean
# T4 sequence (Q06124 whole entry): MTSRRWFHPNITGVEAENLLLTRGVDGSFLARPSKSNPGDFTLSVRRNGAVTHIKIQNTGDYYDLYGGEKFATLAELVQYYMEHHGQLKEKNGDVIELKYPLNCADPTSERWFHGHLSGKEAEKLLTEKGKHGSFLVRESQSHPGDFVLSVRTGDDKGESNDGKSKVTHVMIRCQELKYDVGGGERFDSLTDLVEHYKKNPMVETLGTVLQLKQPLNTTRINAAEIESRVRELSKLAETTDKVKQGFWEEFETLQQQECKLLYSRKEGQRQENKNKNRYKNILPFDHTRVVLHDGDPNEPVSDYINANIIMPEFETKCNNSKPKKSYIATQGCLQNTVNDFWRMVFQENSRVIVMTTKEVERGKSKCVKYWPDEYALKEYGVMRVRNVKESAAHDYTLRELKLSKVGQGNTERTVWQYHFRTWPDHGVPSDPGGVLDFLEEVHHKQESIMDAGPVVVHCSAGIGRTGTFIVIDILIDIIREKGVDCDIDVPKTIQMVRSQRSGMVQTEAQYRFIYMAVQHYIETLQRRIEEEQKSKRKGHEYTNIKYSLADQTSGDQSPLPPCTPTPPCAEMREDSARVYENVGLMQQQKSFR
# [11] = target: T5, Tyrosine-protein phosphatase non-receptor type 5 (Homo sapiens, UniProt P54829); assay: STEP phosphatase inhibitors, confirmation, biochemical, fluorescence intensity, uHTS hits (AID 602372); assay type: functional; details: read-out: IC50_Mean
# T5 sequence (P54829 whole entry): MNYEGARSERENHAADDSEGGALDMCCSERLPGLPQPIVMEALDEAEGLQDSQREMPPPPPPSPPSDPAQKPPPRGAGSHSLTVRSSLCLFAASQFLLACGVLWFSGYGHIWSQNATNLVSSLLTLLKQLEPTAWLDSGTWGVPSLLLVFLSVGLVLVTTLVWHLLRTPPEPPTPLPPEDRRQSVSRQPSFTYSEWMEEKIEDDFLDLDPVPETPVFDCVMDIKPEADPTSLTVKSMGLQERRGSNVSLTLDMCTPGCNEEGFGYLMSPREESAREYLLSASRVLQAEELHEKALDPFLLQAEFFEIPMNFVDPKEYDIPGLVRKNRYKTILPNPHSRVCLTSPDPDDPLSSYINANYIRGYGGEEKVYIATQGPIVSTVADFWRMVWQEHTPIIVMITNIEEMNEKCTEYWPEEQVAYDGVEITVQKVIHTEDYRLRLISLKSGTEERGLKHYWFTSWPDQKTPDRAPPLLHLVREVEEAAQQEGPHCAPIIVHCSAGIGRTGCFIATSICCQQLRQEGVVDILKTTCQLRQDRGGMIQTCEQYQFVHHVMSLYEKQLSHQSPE
# [12] = target: Dual specificity protein phosphatase 3 (Homo sapiens, UniProt P51452); assay: VHR phosphatase inhibition, dose response, selectivity assay for STEP inhibitor project, biochemical (AID 602374); assay type: functional; details: read-out: IC50_Mean
# Sequence of Dual specificity protein phosphatase 3 (P51452 whole entry): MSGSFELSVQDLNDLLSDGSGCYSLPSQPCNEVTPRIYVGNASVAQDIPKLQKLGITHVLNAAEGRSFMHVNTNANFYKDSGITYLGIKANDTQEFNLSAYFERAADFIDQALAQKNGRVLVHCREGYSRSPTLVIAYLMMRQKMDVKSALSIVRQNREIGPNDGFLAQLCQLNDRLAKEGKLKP
# [13] = target: Eukaryotic translation initiation factor 4E (Mus musculus, UniProt P63073); assay: eIF4E–eIF4G protein interaction inhibitors, dose response, biochemical, TR-FRET (AID 855); assay type: functional;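 further: potency for disrupting eIF4E binding to eIF4GI seen as loss of FRET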
# Sequence of Eukaryotic translation initiation factor 4E (P63073 whole entry): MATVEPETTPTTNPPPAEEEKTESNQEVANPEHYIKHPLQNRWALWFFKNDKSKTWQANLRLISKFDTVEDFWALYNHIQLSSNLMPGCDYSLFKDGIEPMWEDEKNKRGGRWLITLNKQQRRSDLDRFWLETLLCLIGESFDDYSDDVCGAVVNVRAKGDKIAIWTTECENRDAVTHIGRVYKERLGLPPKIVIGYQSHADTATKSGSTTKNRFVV
# [14] = C. albicans growth with fluconazole, confirmation, fluorescence, retest (AID 2467); assay type: functional, cell-based
# [15] = NIH-3T3 fibroblast cytotoxicity, dose response, cytotoxicity control, cell-based, fluorescence, Alamar Blue, secondary assay (AID 2327); assay type: functional;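 further: NIH-3T3 mouse fibroblasts cultured with fluconazole at 8 µg/mL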
# [16] = intracellular Trypanosoma cruzi inhibitors in host cells – cell-based, plate reader, cherry-pick samples, set 3, dose response (AID 651818); assay type: functional;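 further: compounds incubated with infected cells for about four days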
# [17] = target: T6, Histone-lysine N-methyltransferase NSD2 (Homo sapiens, UniProt O96028); assay type: biochemical
# T6 sequence (O96028 whole entry): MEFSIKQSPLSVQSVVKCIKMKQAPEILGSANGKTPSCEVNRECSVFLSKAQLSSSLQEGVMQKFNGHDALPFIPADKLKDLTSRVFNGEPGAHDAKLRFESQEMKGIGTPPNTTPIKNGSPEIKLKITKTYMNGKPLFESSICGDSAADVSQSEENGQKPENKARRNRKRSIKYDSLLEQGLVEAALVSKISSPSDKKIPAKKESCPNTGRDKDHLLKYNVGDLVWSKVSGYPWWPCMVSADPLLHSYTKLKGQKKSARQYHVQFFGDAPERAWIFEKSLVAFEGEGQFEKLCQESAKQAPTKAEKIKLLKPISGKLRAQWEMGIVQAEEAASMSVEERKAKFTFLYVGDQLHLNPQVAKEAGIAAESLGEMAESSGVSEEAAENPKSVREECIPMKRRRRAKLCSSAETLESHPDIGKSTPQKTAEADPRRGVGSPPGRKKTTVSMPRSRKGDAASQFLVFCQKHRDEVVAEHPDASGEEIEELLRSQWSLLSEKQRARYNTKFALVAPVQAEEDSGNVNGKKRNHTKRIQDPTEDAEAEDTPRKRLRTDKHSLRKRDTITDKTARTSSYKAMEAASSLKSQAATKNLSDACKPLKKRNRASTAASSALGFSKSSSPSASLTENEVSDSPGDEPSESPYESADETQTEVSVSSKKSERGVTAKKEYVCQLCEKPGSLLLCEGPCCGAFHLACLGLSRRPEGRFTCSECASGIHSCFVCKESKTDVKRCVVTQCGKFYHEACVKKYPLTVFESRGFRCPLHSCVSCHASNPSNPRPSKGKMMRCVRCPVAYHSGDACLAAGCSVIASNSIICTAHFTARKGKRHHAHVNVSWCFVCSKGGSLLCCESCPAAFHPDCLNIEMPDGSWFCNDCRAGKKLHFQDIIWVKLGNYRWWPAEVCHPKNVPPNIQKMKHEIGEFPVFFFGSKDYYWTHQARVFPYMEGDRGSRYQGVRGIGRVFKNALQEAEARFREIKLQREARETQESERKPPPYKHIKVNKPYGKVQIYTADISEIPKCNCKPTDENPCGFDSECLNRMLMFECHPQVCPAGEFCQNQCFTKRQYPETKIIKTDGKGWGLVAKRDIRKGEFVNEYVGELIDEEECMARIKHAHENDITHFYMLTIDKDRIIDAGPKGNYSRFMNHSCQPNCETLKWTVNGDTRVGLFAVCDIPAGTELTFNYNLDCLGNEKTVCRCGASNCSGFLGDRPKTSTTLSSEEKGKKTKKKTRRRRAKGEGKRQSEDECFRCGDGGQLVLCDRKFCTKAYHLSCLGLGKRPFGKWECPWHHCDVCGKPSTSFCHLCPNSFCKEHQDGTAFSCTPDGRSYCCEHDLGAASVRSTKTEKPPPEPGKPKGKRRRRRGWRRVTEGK
# T1 sequence (P49327 whole entry, the tested form may be a part): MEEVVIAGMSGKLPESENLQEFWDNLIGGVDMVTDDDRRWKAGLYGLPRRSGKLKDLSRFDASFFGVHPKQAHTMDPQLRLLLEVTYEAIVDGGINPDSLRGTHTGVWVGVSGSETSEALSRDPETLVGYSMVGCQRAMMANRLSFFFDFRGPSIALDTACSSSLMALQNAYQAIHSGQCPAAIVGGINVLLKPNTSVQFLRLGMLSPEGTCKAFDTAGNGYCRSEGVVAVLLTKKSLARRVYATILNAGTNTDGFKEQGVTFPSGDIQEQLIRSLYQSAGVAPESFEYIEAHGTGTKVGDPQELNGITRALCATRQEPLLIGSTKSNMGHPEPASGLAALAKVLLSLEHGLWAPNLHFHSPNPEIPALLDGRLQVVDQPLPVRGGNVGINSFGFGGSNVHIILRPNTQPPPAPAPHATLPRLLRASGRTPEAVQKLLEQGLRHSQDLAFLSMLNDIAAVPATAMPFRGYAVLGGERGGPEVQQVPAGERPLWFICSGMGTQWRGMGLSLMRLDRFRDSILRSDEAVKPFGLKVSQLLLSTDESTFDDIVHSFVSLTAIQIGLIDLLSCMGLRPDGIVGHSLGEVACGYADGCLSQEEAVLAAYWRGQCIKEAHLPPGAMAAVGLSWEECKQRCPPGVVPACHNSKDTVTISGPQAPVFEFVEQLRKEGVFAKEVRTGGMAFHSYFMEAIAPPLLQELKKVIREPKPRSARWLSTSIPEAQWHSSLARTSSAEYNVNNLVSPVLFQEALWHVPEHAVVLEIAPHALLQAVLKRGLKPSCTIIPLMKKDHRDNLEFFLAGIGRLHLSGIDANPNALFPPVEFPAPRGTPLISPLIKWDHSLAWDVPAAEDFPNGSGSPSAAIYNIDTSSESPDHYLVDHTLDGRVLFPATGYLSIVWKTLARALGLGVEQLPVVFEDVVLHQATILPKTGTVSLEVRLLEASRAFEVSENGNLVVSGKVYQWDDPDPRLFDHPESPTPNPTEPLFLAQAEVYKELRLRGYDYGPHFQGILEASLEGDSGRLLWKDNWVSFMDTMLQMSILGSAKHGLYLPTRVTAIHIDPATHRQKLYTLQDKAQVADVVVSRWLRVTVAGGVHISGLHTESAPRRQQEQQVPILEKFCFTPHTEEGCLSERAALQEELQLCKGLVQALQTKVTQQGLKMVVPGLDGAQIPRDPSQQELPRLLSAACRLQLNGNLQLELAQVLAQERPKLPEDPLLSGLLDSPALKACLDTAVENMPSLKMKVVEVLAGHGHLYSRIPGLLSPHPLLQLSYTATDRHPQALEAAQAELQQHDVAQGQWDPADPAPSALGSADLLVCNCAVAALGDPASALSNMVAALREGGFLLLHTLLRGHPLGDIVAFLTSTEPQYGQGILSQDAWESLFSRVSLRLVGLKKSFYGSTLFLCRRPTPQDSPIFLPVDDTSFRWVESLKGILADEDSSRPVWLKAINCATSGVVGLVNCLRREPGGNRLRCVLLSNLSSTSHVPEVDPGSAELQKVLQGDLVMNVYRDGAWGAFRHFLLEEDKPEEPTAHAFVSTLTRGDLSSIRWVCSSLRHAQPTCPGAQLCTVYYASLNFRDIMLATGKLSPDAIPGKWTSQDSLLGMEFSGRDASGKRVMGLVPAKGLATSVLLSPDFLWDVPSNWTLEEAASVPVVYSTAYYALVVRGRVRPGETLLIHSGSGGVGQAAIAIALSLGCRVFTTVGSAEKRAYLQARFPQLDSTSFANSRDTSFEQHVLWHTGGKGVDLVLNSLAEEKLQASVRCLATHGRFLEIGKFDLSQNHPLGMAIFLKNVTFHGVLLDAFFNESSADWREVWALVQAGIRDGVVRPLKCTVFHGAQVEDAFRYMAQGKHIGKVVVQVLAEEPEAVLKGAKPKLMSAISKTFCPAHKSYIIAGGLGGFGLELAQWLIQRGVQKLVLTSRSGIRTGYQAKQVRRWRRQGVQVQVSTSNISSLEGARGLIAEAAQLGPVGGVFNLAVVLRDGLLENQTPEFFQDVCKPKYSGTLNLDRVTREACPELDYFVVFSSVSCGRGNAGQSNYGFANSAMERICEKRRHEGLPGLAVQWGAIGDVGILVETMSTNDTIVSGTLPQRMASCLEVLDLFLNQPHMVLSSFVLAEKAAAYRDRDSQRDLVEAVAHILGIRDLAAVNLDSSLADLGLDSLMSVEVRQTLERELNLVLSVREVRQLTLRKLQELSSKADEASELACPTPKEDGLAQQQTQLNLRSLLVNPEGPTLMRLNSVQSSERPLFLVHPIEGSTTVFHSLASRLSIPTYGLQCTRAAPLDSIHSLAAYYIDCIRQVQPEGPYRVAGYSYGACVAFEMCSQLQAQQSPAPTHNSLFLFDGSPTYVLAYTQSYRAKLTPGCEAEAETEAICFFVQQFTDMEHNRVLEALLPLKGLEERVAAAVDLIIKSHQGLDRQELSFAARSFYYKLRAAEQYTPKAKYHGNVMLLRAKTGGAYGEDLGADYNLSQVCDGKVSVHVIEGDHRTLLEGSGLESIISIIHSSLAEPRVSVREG
compound,measurement,setting,value
O=C(COC(=O)c1cc([N+](=O)[O-])ccc1N1CCOCC1)Nc1ccc(Cl)cn1,IC50,Fatty acid synthase [1],6.06 µM (active)
same,IC50,[2],1.91 µM (active)
same,IC50,Fatty acid synthase [3],5.2 µM (active)
same,AC50,[4],25.6 µM (active)
same,AC50,[5],4.89 µM (active)
O=C(O)c1ccc(-n2ncc3c2/C(=C/c2cccc([N+](=O)[O-])c2)CC3)cc1,IC50,[6],9.76 µM (active)
same,IC50,[7],4.34 µM (active)
same,EC50,[8],> 53 µM (inactive)
CCCN(CCC)CCCNC(=O)c1cc2c(O)nc3ccccc3c2s1,AC50,[9],71.6 µM (active)
COc1ccc(NC(=S)NCCCN2CCCC2)cc1Cl,IC50,[10],1.89 µM (active)
same,IC50,[11],16.4 µM (active)
same,IC50,[12],1.12 µM (active)
COCC(C)n1c(SCc2ccc(C(=O)OC)o2)nc2ccccc2c1=O (stereo unspecified),IC50,[6],> 20 µM (inactive)
same,IC50,[7],27.4 µM (active)
same,IC50,[13],> 64 µM (inactive)
same,EC50,[8],> 53 µM (inactive)
O=C1/C(=C\c2ccc(Br)cc2)SC(=S)N1NS(=O)(=O)c1ccccc1,EC50,[14],267 nM (active)
same,IC50,[6],17.6 µM (active)
same,IC50,[7],5.5 µM (active)
same,EC50,[8],36.2 µM (active)
same,EC50,[15],94.2 µM (active)
C[C@@H]1CN([C@H](C)CO)C(=O)c2cc(N(C)C)ccc2O[C@@H]1CN(C)Cc1ccc(C(=O)Nc2ccccc2N)cc1,AC50,[16],3.19 µM (active)
C[C@@H]1CN([C@H](C)CO)C(=O)c2cccc(NS(=O)(=O)c3ccc(F)cc3)c2O[C@@H]1CN(C)C(=O)Nc1ccc(C(F)(F)F)cc1,AC50,[16],4.16 µM (active)
C[C@@H]1CN([C@@H](C)CO)C(=O)Cc2cc(NC(=O)Nc3ccc(C(F)(F)F)cc3)ccc2O[C@@H]1CN(C)Cc1ccc(C(=O)Nc2ccccc2N)cc1,AC50,[16],1.8 µM (active)
CC(C)NC1CCC(Nc2ccnc3cc(Cl)ccc23)CC1 (stereo unspecified),AC50,[9],25.7 µM (active)
same,AC50,[17],> 20 µM (inactive)
